The values below come from patent US20200216439A1, “HETERO-1,5,6,7-TETRAHYDRO-4H-INDOL-4-ONES” (BAYER PHARMA AKTIENGESELLSCHAFT, priority 2015, published 2020).

The structures appear in SMILES notation.

This experiment deals with T1, catalytic domain of human Bub1 (amino acids 704-1085) (Homo sapiens, UniProt O43683).
T1 construct: catalytic domain of human Bub1 (amino acids 704-1085); His6 (N); made in house; host or cells: Hi5 insect cells
Briefly: Bub1 kinase assay (TR-FRET). The experiment is classed as biochemical. To be noted: TR-FRET; ATP 10 μM, peptide substrate 1 μM; 60 min at 22° C.; average or median if tested more than once; read-out: Inhibition of Bub1 kinase IC50. In a few lines:
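Eleven concentrations (0.1 nM–20 μM, duplicate) fitted by 4-parameter logistic for IC50. Read-out: EDTA-stopped TR-FRET (665/620 nm) detecting anti-phosphoserine binding to biotin-peptide (1 μM). Reaction used 10 μM ATP, 60 min at 22 °C, after 15 min compound preincubation with His-tagged human Bub1 704-1085.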

T1 sequence (O43683 704-1085): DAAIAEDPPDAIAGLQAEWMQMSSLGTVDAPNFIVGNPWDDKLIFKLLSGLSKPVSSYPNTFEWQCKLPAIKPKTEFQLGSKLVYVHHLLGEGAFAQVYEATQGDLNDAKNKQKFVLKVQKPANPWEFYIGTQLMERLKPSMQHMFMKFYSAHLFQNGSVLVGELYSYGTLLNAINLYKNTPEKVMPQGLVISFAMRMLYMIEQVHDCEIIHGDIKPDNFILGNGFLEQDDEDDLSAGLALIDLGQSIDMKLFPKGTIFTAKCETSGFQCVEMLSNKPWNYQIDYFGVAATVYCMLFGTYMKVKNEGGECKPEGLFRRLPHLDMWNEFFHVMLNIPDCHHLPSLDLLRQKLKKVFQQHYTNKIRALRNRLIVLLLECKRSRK

`COc1cc(C(=O)Nc2cc(-c3[nH]c4c(c3Nc3ccccc3)C(=O)CN(S(=O)(=O)N(C)C)C4)ccn2)ccc1F` [Example 259, N-4-[6-(Dimethylsulfamoyl)-4-oxo-3-(phenylamino)-4,5,6,7-tetrahydro-1H-pyrrolo[2,3-c]pyridin-2-yl]pyridin-2-yl-4-fluoro-3-methoxybenzamide]: the IC50 amounted to 3 nM.

On to `Cn1cnc(S(=O)(=O)N2CC(=O)c3c([nH]c(-c4ccncc4)c3Nc3ccccc3)C2)c1` [Example 73, 6-[(1-Methyl-1H-imidazol-4-yl)sulfonyl]-3-(phenylamino)-2-(pyridin-4-yl)-1,5,6,7-tetrahydro-4H-pyrrolo[2,3-c]pyridin-4-one], for which the concentration for half-maximal inhibition (IC50) came to 8 nM.

As for `CC(=O)Nc1cc(-c2[nH]c3c(c2Nc2ccccc2)C(=O)COC3)ccn1` [Example 34, N-{4-[4-Oxo-3-(phenylamino)-1,4,5,7-tetrahydropyrano[3,4-b]pyrrol-2-yl]pyridin-2-yl}acetamide], the IC50 came out at 60 nM.

Consider `CC(C)(C)COC(=O)N1CC(=O)c2c([nH]c(-c3ccncc3)c2Nc2ccccc2)C1` [Example 78, 2,2-Dimethylpropyl 4-oxo-3-(phenylamino)-2-(pyridin-4-yl)-1,4,5,7-tetrahydro-6H-pyrrolo[2,3-c]pyridine-6-carboxylate], for which the IC50 was 73 nM.

Regarding `CN(C)CCOc1cnccc1-c1[nH]c2c(c1Nc1ccccc1)C(=O)CN(C(=O)OC(C)(C)C)C2` [Example 276, tert-Butyl 2-3-[2-(dimethylamino)ethoxy]pyridin-4-yl-4-oxo-3-(phenylamino)-1,4,5,7-tetrahydro-6H-pyrrolo[2,3-c]pyridine-6-carboxylate], the IC50 was 7 nM.

Turning to `COc1ccc(C(=O)Nc2cc(-c3[nH]c4c(c3Nc3ccccc3)C(=O)CN(C(=O)SC(C)(C)C)C4)ccn2)cc1F` [Example 305, S-tert-butyl 3-anilino-2-{2-[(3-fluoro-4-methoxybenzoyl)amino]pyridin-4-yl}-4-oxo-1,4,5,7-tetrahydro-6H-pyrrolo[2,3-c]pyridine-6-carbothioate], the IC50 worked out at 233 nM.

Regarding `COC(=O)N1CC(=O)c2c([nH]c(-c3ccnc(NC(C)=O)c3)c2Nc2ccc(F)cc2)C1` [Example 314, Methyl 2-[2-(acetylamino)pyridin-4-yl]-3-[(4-fluorophenyl)amino]-4-oxo-1,4,5,7-tetrahydro-6H-pyrrolo[2,3-c]pyridine-6-carboxylate], the IC50 was 8 nM.

For the compound `CC(C)(C)OC(=O)N1CC(=O)c2c([nH]c(-c3ccncc3Br)c2Nc2ccccc2)C1` [Example 100, tert-Butyl 2-(3-bromopyridin-4-yl)-4-oxo-3-(phenylamino)-1,4,5,7-tetrahydro-6H-pyrrolo[2,3-c]pyridine-6-carboxylate], the IC50 was determined as 26 nM.

With `Cn1c2c(c(Nc3ccccc3)c1-c1ccncc1)C(=O)CN(S(C)(=O)=O)C2` [Example 64, 1-Methyl-6-(methylsulfonyl)-3-(phenylamino)-2-(pyridin-4-yl)-1,5,6,7-tetrahydro-4H-pyrrolo[2,3-c]pyridin-4-one], the IC50 was found to be 1400 nM.

For the compound `CCNC(=O)Nc1cc(-c2[nH]c3c(c2Nc2ccccc2)C(=O)COC3)ccn1` [Example 54, 1-Ethyl-3-{4-[4-oxo-3-(phenylamino)-1,4,5,7-tetrahydropyrano[3,4-b]pyrrol-2-yl]pyridin-2-yl}urea], the IC50 amounted to 77 nM.

Take `CN(C)C(=O)N1CC(=O)c2c([nH]c(-c3ccncc3OCC(F)F)c2Nc2ccccc2)C1` [Example 238, 2-[3-(2,2-Difluoroethoxy)pyridin-4-yl]-N,N-dimethyl-4-oxo-3-(phenylamino)-1,4,5,7-tetrahydro-6H-pyrrolo[2,3-c]pyridine-6-carboxamide]: the IC50 was found to be 8 nM.

Take `O=C1CN(C(=O)NCC(F)F)Cc2[nH]c(-c3ccncc3)c(Nc3ccccc3)c21` [Example 83, N-(2,2-Difluoroethyl)-4-oxo-3-(phenylamino)-2-(pyridin-4-yl)-1,4,5,7-tetrahydro-6H-pyrrolo[2,3-c]pyridine-6-carboxamide]: the IC50 is 12 nM.

Take `CCCN(C)C(=O)N1CC(=O)c2c([nH]c(-c3ccnc(NC(C)=O)c3)c2Nc2ccccc2)C1` [Example 187, 2-(2-Acetamidopyridin-4-yl)-3-anilino-N-methyl-4-oxo-N-propyl-1,4,5,7-tetrahydro-6H-pyrrolo[2,3-c]pyridine-6-carboxamide]: the IC50 was determined as 3 nM.

Consider `COC(=O)N1CC(=O)c2c([nH]c(-c3ccnc(NC(=O)[C@H]4C[C@H]4F)c3)c2Nc2ccccc2)C1` [Example 141, Methyl 3-anilino-2-[2-({[(1R,2R)-2-fluorocyclopropyl]carbonyl}amino)pyridin-4-yl]-4-oxo-1,4,5,7-tetrahydro-6H-pyrrolo[2,3-c]pyridine-6-carboxylate], for which the IC50 came to 7 nM.

`Cc1cnccc1-c1[nH]c2c(c1Nc1ccccc1)C(=O)COC2` [Example 40, 2-(3-Methylpyridin-4-yl)-3-(phenylamino)-1,7-dihydropyrano[3,4-b]pyrrol-4(5H)-one]: the IC50 was determined as 1470 nM.

`COc1ccc(C(=O)Nc2cc(-c3c(Nc4ccccc4)c4c(n3C)CN(S(=O)(=O)N(C)C)CC4=O)ccn2)cc1F` [Example 290, N-4-[6-(Dimethylsulfamoyl)-1-methyl-4-oxo-3-(phenylamino)-4,5,6,7-tetrahydro-1H-pyrrolo[2,3-c]pyridin-2-yl]pyridin-2-yl-3-fluoro-4-methoxybenzamide]: the IC50 turned out to be 73 nM.

Consider `CC(=O)Nc1cc(-c2[nH]c3c(c2Nc2ccccc2)C(=O)CN(C(=O)c2ncco2)C3)ccn1` [Example 199, N-4-[6-(1,3-Oxazol-2-ylcarbonyl)-4-oxo-3-(phenylamino)-4,5,6,7-tetrahydro-1H-pyrrolo[2,3-c]pyridin-2-yl]pyridin-2-ylacetamide], for which the IC50 came to 20 nM.

As to `COc1cnccc1-c1[nH]c2c(c1Nc1ccccc1)C(=O)CN(C(=O)C(C)(C)C)C2` [Example 106, 6-(2,2-Dimethylpropanoyl)-2(3-methoxypyridin-4-yl)-3-(phenylamino)-1,5,6,7-tetrahydro-4H-pyrrolo[2,3-c]pyridin-4-one], the IC50 came out at 6 nM.

As for `COC(=O)N1CC(=O)c2c([nH]c(-c3ccnc(NC(=O)C4CC4(F)F)c3)c2Nc2ccccc2)C1` (racemic) [Example 146, Methyl 3-anilino-2-[2-({[(1RS)-2,2-difluorocyclopropyl]carbonyl}amino)pyridin-4-yl]-4-oxo-1,4,5,7-tetrahydro-6H-pyrrolo[2,3-c]pyridine-6-carboxylate], the IC50 stood at 10 nM.

`CS(=O)(=O)N1CC(=O)c2c([nH]c(-c3ccncc3OCC3CC3)c2Nc2ccccc2)C1` [Example 235, 2-[3-(Cyclopropylmethoxy)pyridin-4-yl]-6-(methylsulfonyl)-3-(phenylamino)-1,5,6,7-tetrahydro-4H-pyrrolo[2,3-c]pyridin-4-one]: the IC50 was 6 nM.

In the case of `CC(C)OC(=O)N1CC(=O)c2c([nH]c(-c3ccncc3)c2Nc2ccccc2)C1` [Example 77, Propan-2-yl 4-oxo-3-(phenylamino)-2-(pyridin-4-yl)-1,4,5,7-tetrahydro-6H-pyrrolo[2,3-c]pyridine-6-carboxylate], the IC50 came out at 11 nM.
